Measurements from PMC6123649, “Structural basis for specific inhibition of the highly sensitive ShHTL7 receptor” (EMBO Reports, 2018).

Columns and labels:
[1] = target: T1, ShHTL7 (Striga hermonthica, UniProt A0A0M3PNA2); assay: Yoshimulactone Green (YLG) hydrolysis competition assay; type: biochemical
T1 sequence (A0A0M3PNA2 1-271): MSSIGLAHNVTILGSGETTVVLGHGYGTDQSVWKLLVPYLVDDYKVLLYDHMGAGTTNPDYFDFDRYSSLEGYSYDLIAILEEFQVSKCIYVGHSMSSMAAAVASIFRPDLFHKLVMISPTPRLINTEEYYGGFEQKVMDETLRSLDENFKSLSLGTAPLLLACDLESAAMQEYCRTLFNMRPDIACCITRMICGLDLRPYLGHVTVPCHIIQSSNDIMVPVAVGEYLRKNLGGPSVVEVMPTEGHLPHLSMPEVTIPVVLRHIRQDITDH
Description: In vitro YLG hydrolysis assays were performed using 3 μM of ShHTL7, ShHTL7‐L143Y, AtD14, and OsD14 in a reaction buffer (1× PBS) with 0.1% dimethyl sulfoxide (DMSO) in a 100 μl volume on a 96‐well black plate (Greiner). The fluorescent intensity was measured by SpectraMax i3 (Molecular Devices) using an excitation wavelength of 480 nm and a detection wavelength of 520 nm. […] Protein‐Triton mixes were pre‐incubated for 30 min. 1 μM YLG (Tokyo Chemical Industry Co. Ltd.) was then added, and the assay was incubated for 60 min. The change in fluorescence observed over the course of 1 h incubation of YLG in buffer without protein was subtracted from the data collected in the presence of protein. The resulting relative fluorescence values were analyzed. The inhibitory curves and IC50 values were plotted using GraphPad (Prism 6) four‐parameter logistic curve. The rate of YLG hydrolysis by ShHTL7 was recorded following the above method at 10‐min interval for 2 h.

[2] = target: T2, OsD14 (Oryza sativa subsp. japonica, UniProt Q10QA5); assay: DSLS, aggregation temperature; type: binding; settings: up to 100 μM of Triton
T2 construct: made in house; host or cells: E. coli BL21 (DE3)
T2 sequence (Q10QA5 1-318): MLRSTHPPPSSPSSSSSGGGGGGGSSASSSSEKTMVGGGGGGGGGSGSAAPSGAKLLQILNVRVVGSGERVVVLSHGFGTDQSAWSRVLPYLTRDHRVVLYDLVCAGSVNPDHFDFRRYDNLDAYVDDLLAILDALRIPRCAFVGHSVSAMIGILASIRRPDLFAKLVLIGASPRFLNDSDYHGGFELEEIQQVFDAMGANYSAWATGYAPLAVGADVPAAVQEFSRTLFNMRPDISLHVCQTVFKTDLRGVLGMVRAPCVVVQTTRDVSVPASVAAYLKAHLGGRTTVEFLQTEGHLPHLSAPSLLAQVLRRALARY
Description: (§1) The specific aggregation temperature, T agg, at which ShHTL7, ShHTL7L143Y, AtD14, and OsD14 aggregated in the presence or absence of Triton X‐100, GR24, and PAA was measured using DSLS on the Stargazer system (Harbinger Biotechnology and Engineering Corporation, Markham, Canada). Protein samples at a concentration of 10 μM were overlaid with mineral oil in a clear bottom 384‐well black plate (Corning) and heated from 20 to 95°C at 1°C/min; light scattering was detected by a CCD camera every 0.5°C in the presence or absence of varying concentrations of Triton X‐100, GR24, and PAA yielding the difference in aggregation temperature at a particular concentration from apoproteins (ΔT agg). Data were normalized, and ΔT agg plotted against the Triton X‐100, GR24, and PAA concentration. Resulting data were plotted to determine the change in T agg of all proteins when bound to Triton X‐100, GR24, and PAA using GraphPad (Prism 6).

[3] = target: T3, AtD14 (Arabidopsis thaliana, UniProt Q9SQR3); assay: DSLS, aggregation temperature; type: binding; settings: up to 100 μM of Triton
T3 construct: made in house; host or cells: E. coli BL21 (DE3)
T3 sequence (Q9SQR3 1-267): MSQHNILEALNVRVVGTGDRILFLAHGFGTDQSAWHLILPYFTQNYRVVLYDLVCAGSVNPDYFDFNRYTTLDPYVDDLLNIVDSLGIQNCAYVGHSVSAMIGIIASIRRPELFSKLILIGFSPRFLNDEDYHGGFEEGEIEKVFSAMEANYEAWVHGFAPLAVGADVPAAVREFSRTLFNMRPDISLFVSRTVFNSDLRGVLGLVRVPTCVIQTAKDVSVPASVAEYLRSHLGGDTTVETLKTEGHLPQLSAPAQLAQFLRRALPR
Description: as §1

[4] = target: T1, ShHTL7; assay: Microscale thermophoresis (MST); type: binding; settings: 2.5 h pre‐incubation; 0.005% Tween‐20; read-out: dissociation constant (Kd), MST
Description: ShHTL7 was N‐terminally labeled with RED dye (NT‐647) following the protocol from manufacturer (NanoTemper, Germany). Free dye was removed by passing through the Sephadex G‐25 column. Serial dilutions of unlabeled Triton X‐100, GR24, and PAA ranging from 25 μM to sub‐nanomolar range were mixed with 20 nM of NT‐647‐labeled ShHTL7 in buffer (50 mM Tris–HCl, 150 mM NaCl, 0.005% Tween‐20) and incubated for 2.5 h in the studies for Triton X‐100 and PAA except with GR24, and it was recorded after 10‐min incubation. About 10 μl of sample was loaded into premium monolith NT capillaries, and assays were carried out in a NanoTemper Monolith NT.015T. The red fluorescence was excited by a light‐emitting diode, and its emission was recorded on the focused part of capillaries. Using laser diode, a microscopic temperature gradient was created at the same location and the fluorescence depletion was measured. K d values were determined by plotting the concentrations of unlabeled ligands against the changes in fluorescent thermophoresis signal, and the data were analyzed using the NanoTemper analysis software.

Triton X-100
IC50 ([1]; 3 μM ShHTL7, 1 μM YLG, pre‐incubation with compound, read-out: IC50, YLG hydrolysis by ShHTL7): 470 ± 110 nM
fold lower IC50 than that reported for Soporidine ([1]; compared with non‐specific inhibitor Soporidine): 25 fold
effect on T agg [2]: failed to affect
effect on T agg [3]: failed to affect
Kd [4]: 440 ± 50 nM
